Data published in ChEMBL document CHEMBL1154681, “Structural aspects of flavonoids as inhibitors of human butyrylcholinesterase” (Eur J Med Chem, 2010).
Active and inactive are the calls of the source. No cut-off for these calls is given here.

Legend:
Cholinesterase [1] = target: T1, Cholinesterase (Homo sapiens, UniProt P06276); test: Inhibition of human plasma BChE by Ellman's method
Acetylcholinesterase = Acetylcholinesterase (Homo sapiens, UniProt P22303); test: Inhibition of human recombinant AChE by Ellman's method
Acetylcholinesterase, sequence (P22303 whole entry): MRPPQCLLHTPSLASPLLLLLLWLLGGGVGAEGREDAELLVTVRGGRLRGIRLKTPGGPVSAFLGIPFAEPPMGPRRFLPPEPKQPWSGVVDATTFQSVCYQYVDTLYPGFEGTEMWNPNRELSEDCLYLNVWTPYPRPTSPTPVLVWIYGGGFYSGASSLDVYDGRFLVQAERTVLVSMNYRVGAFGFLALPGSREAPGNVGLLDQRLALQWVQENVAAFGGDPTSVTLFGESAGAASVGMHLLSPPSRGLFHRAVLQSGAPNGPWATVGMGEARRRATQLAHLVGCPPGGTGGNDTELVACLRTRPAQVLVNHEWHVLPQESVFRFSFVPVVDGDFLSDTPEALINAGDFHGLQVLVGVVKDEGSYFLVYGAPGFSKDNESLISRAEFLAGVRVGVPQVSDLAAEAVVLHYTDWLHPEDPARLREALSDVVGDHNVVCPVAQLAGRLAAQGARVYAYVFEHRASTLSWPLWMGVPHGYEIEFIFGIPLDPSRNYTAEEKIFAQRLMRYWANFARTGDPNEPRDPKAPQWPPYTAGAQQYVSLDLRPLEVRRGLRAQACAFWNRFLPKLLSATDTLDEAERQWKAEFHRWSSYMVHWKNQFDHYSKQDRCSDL

[2] = Stability in phosphate buffer at pH 7.4 after 90 mins by spectrophotometry; format: physicochemical; conditions: pH 7.4, 1.5 h
THP-1 = test: Cytotoxicity against human THP1 cells after 24 hrs by MTS assay; format: cell-based
HepG2 = test: Cytotoxicity against human HepG2 cells upto 200 umol/L after 24 hrs by MTS assay; format: cell-based; conditions: hepg2, 24 h
A549 = test: Cytotoxicity against human A549 cells upto 200 umol/L after 24 hrs by MTS assay; format: cell-based; conditions: a549, 24 h
Cholinesterase [3] = target: T1, Cholinesterase; test: Inhibition of human plasma BChE upto 45 mins at 100 umol/L by Ellman's method; format: cell-free

T1 sequence (P06276 whole entry): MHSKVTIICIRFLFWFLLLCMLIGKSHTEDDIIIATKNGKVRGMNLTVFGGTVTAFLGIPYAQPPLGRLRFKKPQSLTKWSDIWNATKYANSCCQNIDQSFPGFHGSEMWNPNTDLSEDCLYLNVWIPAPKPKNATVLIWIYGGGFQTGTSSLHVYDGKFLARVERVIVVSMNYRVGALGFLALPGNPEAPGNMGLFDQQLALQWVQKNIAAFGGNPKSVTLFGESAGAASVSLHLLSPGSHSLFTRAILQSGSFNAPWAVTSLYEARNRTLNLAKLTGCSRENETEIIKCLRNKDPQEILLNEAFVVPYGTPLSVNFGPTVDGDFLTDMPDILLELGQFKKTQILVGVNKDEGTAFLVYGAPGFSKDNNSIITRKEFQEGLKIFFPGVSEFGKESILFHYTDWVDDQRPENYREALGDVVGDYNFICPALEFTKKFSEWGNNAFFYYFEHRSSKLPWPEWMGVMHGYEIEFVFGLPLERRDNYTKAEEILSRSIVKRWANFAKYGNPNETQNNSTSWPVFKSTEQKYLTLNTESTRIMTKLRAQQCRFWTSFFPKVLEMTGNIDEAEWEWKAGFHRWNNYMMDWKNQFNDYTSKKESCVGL

SMILES | Ki (Cholinesterase [1]) | Ki (Acetylcholinesterase) | Stability [2] | IC50 (THP-1) | Activity (HepG2) | Activity (A549) | inhibition (Cholinesterase [3])
O=c1cc(-c2ccc(O)cc2)oc2cc(O)cc(O)c12 [APIGENIN] | 37.4 microM/L | 121.6 microM/L | Unstable | 60 microM/L | Non-toxic | Non-toxic | –
O=c1c(O)c(-c2ccc(O)c(O)c2)oc2cc(O)ccc12 [FISETIN] | 90 microM/L | 100.2 microM/L | Unstable | 30 microM/L | Non-toxic | Non-toxic | –
O=c1c(O)c(-c2ccccc2)oc2cc(O)cc(O)c12 [GALANGIN] | 6.9 microM/L | 85.6 microM/L | Unstable | – | Non-toxic | Non-toxic | –
O=c1c(O)c(-c2ccc(O)cc2)oc2cc(O)cc(O)c12 [KAEMPFEROL] | 43.1 microM/L | 92.8 microM/L | Unstable | – | Non-toxic | Non-toxic | inactive
O=c1cc(-c2ccc(O)c(O)c2)oc2cc(O)cc(O)c12 [LUTEOLIN] | 166.1 microM/L | 65.8 microM/L | Unstable | 70 microM/L | Non-toxic | Non-toxic | –
O=c1c(O)c(-c2cc(O)c(O)c(O)c2)oc2cc(O)cc(O)c12 [MYRICETIN] | 71 microM/L | 37.8 microM/L | – | – | Non-toxic | Non-toxic | inactive
O=c1c(O)c(-c2ccc(O)c(O)c2)oc2cc(O)cc(O)c12 [QUERCETIN] | 68 microM/L | 38.3 microM/L | Unstable | – | Non-toxic | Non-toxic | –
C[C@@H]1O[C@@H](OC[C@H]2O[C@@H](Oc3c(-c4ccc(O)c(O)c4)oc4cc(O)cc(O)c4c3=O)[C@H](O)[C@@H](O)[C@@H]2O)[C@H](O)[C@H](O)[C@H]1O [RUTIN] | 501.2 microM/L | > 300 microM/L | Stable | – | Non-toxic | Non-toxic | –
